How the values were obtained:
[1] = target: T1, mouse 11β-HSD1 (11β-hydroxysteroid dehydrogenase) (Mus musculus, UniProt P50172); assay: scintillation proximity assay, [3H]cortisone to [3H]cortisol, microsomes overexpressing […]β-HSD1; assay type: biochemical
T1 construct: gene Hsd11b1; full-length cDNA, microsomal fraction of stably transfected HEK-293 cells

[2] = target: T2, human 11β-HSD1 (11β-hydroxysteroid dehydrogenase) (Homo sapiens, UniProt P28845); assay: as above; assay type: biochemical
T2 construct: gene HSD11B1; full-length cDNA, microsomal fraction of stably transfected HEK-293 cells
T2 sequence (P28845 whole entry): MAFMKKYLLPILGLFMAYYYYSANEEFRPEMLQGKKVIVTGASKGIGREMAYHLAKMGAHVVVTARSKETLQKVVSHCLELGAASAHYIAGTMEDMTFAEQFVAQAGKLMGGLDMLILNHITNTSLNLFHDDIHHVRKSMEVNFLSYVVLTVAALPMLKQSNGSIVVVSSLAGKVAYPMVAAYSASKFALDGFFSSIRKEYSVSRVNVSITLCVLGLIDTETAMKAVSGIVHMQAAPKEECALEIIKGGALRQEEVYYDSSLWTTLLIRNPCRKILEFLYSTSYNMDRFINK

T1 sequence (P50172 whole entry): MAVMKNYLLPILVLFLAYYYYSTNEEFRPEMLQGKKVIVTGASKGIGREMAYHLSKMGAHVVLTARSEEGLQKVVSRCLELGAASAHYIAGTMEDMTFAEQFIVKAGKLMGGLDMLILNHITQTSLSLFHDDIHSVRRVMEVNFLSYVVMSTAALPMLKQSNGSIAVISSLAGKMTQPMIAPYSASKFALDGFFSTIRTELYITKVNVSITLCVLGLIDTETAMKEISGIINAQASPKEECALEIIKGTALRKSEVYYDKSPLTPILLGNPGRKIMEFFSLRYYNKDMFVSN

Compound: CC1(C)[C@@H](O[C@H]2O[C@H](C(=O)O)[C@@H](O)[C@H](O)[C@H]2O[C@@H]2O[C@H](C(=O)O)[C@@H](O)[C@H](O)[C@H]2O)CC[C@]2(C)[C@H]3C(=O)C=C4[C@@H]5C[C@@](C)(C(=O)O)CC[C@]5(C)CC[C@@]4(C)[C@]3(C)CC[C@@H]12 [glycyrrhizinic acid]
- IC50 [1]: 0.0065 µM
- IC50 [2]: 0.0042 µM

Compound: CC(C)C1=C(O)C(=O)C2=CC3=C(CO)C(=O)CC[C@@]3(C)CC[C@@]21C [compound 3, Guanacastepene R]
- IC50 [1]: 13.9 µM
- IC50 [2]: 6.2 µM
